For one data set, the target named is T1, human CHK1 (FL-CHK1) (Homo sapiens, UniProt O14757).
T1 construct: C-terminally His-tagged full-length human CHK1 (FL-CHK1); made in house; host or cells: baculovirus/insect cell system
T1 sequence (O14757 1-476): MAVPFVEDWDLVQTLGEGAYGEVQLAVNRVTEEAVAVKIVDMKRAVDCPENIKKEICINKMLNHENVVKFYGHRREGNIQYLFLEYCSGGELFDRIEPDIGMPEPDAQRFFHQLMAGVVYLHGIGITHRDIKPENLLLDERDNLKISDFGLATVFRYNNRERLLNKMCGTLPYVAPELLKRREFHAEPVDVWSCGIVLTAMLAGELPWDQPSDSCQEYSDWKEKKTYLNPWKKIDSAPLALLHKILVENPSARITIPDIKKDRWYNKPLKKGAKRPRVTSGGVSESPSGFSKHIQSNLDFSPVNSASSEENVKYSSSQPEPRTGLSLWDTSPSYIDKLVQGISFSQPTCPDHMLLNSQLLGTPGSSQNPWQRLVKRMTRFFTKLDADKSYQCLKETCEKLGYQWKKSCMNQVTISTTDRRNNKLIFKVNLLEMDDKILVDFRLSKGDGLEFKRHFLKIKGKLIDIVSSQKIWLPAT
Briefly: CHK1 assay (coupled spectrophotometric, Syntide-2). The data set is classed as biochemical. To be noted: read-out: CHK-1 Ki. The method, boiled down: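 Full-length C-terminally His-tagged human CHK1 expressed in baculovirus/insect cells, used at 10 nM with Syntide-2 substrate. ADP formation coupled via PK/LDH to NADH oxidation, followed as absorbance decrease at 340 nm. Ki from initial rates at varying compound concentrations.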

The target in a further data set is CDK1 (Homo sapiens, UniProt P06493). In words: CDK1 inhibition. The data set is classed as biochemical. To be noted: Table 3.
Data set [1] concerns the target T2, phosphorylase kinase (truncated catalytic gamma subunit) (Oryctolagus cuniculus, UniProt P00518).
T2 construct: (gamma subunit) of phosphorylase kinase (amino acids 1-298); made in house
In words: Phosphorylase kinase assay. Type of data set: biochemical. To be noted: 10 μM of compound.
Description: Phosphorylase Kinase Assay. In the assay, the purified catalytic subunit is used to phosphorylate phosphorylase b using radiolabled ATP. Briefly, 1.5 mg/ml of phosphorylase b is incubated with 10 nM phosphorylase kinase in 10 Mm MgCl2, 50 mM Hepes pH 7.4, at 37° C. […] The reaction was terminated and proteins were precipitated by the addition of TCA to 10% final concentration. […] The filter plate was then extensively washed with 20% TCA, and dried. Scintilation fluid was then added to the plate and incorporated radiolabel was counted on a Wallac microbeta counter.

In data set [2] the target is unphosphorylated VEGF-R2Δ50 (FLVK) (Homo sapiens, UniProt P35968, DEL940-989/E990V). Briefly: VEGF-R2 coupled spectrophotometric assay, unphosphorylated VEGF-R2Δ50 (FLVK).
The target of another data set is T3, LCK tyrosine kinase (Homo sapiens, UniProt P06239, C224D/P223M).
T3 construct: starting from amino acid residue 223 to the end of the protein at residue 509; made in house; host or cells: insect cells
In words: LCK spectrophotometric assay. The following applies: Table 1; for inhibition at 1 µM: compound concentration 1 μM, read-out: Lck-P % inhibition. The data set is classed as biochemical. How it is done:
The production of ADP from ATP that accompanies phosphoryl transfer was coupled to oxidation of NADH using phosphoenolpyruvate (PEP) and a system having pyruvate kinase (PK) and lactic dehydrogenase (LDH). The oxidation of NADH was monitored by following the decrease of absorbance at 340 nm (e340=6.22 cm^−1 mM^−1) using a Beckman DU 650 spectrophotometer. […] Ki values were determined by measuring enzyme activity in the presence of varying concentrations of test compounds. The data were analyzed using Enzyme Kinetic and Kaleidagraph software.
The spectrophotometric assay was carried out as described above for VEGF-R2, except for the following changes in concentration: LCK=60 nM, MgCl2=0 mM, poly(E4Y1)=20 mM.

For data set [3], the system named is human umbilical vein endothelial cells (HUVEC). In words: HUVEC proliferation assay (VEGF-stimulated, MTT). The data set is classed as cell-based. To be noted: Homo sapiens, HUVEC, + albumin; read-out: HUVEC + albumin IC50.
Data set [4] relates to lung cancer cells (line MV522). Briefly: Cancer cell proliferation (MV522) assay. The data set is classed as cell-based. The procedure:
Cancer Cell Proliferation (MV522) Assay
The protocol for assessing cellular proliferation in cancer cells is similar to that used for assessments in HUVEC cells. Two thousand lung cancer cells (line MV522, acquired from American Tissue Cultural Collection) were seeded in growth media (RPMI1640 medium supplemented with 2 mM glutamine and 10% FBS). Cells are allowed to attach for 1 day prior to addition of test agents and/or vehicles. Cells are treated simultaneously with the same test agents used in the HUVEC assay. Cellular proliferation is quantified by MTT dye reduction assay 72 hours after exposure to test agents. The total length of the assay is 4 days vs. 5 for HUVEC cells because MV522 cells are not exposed to starvation medium.

The nature of data set [5]: Determination of inhibitor concentration in mouse plasma after intraperitoneal and oral dosing. Type of data set: in vivo. The procedure, abridged: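 Mice dosed intraperitoneally or orally; blood taken by ocular bleed at 0.5, 1 and 4 h and by intracardiac puncture at 7 h. Plasma extracted with ethyl acetate after internal standard and NaOH addition, analysed by HPLC or LC-MS against a mouse-plasma standard curve.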

In another data set the target is human FGF-R1 (Homo sapiens, UniProt P11362, C488A/C584S/L457V). Briefly: FGF-R spectrophotometric assay.
The next data set concerns the target CDK2/Cyclin A (Homo sapiens, UniProt P24941). Briefly: CDK2/Cyclin A assay ([32P]ATP, Rb fragment). The data set is classed as biochemical. To be noted: Table 1.
The next data set in a line: Mouse PK assay. Type of data set: in vivo. To be noted: female, B6, plasma, oral. How it is done: Mouse PK Assay The pharmacolinetics (e.g., absorption and elimination) of drugs in mice were analyzed using the following experiment. […] This was administered orally (p.o.) and intraperitoneally (i.p.) at variable doses to two distinct groups (n=4) of B6 female mice. Blood samples were collected via an orbital bleed at time points: 0 hour (pre-dose), 0.5 h, 1.0 h, 2.0 h, and 4.0 h, and 7.0 h post dose. Plasma was obtained from each sample by centrifugation at 2500 rpm for 5 min. Test compound was extracted from the plasma by an organic protein precipitation method. For each time bleed 50 μL of plasma was combined with 1.0 mL of acetonitrile, vortexed for 2 min. and then spun at 4000 rpm for 15 min. to precipitate the protein and extract out the test compound. Next, the acetonitrile supernatant (the extract containing test compound) was poured into new test tubes and evaporated on a hot plate (25° C.) under a steam of N2 gas. […] Test-compound plasma concentrations (μg/mL) were determined by a comparison to standard curve (peak area vs. conc. μg/mL) using known concentrations of test compound extracted from plasma samples in the manner described above. […] The quantitated test samples were plotted for visual display using Kalidagraph software and their pharmacokinetic parameters were determined using WIN NONLIN software.

Data set [6] in a line: Human liver microsome (HLM) assay. Type of data set: in vitro ADME. To be noted: human liver microsomes, 5 μM test compound. The procedure, abridged:
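Compound metabolism in human liver microsomes measured in triplicate. Samples at 0 and 2 h centrifuged at 14000 g for 10 min and analysed by LC-MS.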
Background: Microsomes from liver hold many membrane-bound enzymes, among them those of drug oxidation.

The next data set has as its target CDK4/Cyclin D3 complex (Homo sapiens, UniProt P11802). Briefly: CDK4/Cyclin D assay ([32P]ATP, Rb fragment).
Data set [7] addresses phosphorylated VEGF-R2Δ50 (FLVK-P) (Homo sapiens, UniProt P35968, DEL940-989/E990V). Briefly: VEGF-R2 coupled spectrophotometric assay, phosphorylated VEGF-R2Δ50 (FLVK-P).
Data set [8] has as its system VEGF dependent retinal neovascularization. Briefly: In vivo assay of retinal vascular development in neonatal rat model of retinopathy of prematurity. To be noted: ROP model; intravitreal; 10 mg/ml; vehicle PEG/water 70:30. The procedure:
In Vivo Assay of Retinal Vascular Development in Neonatal Rat Model of Retinopathy of Prematurity A second model of VEGF dependent retinal neovascularization was employed to evaluate the activities of this series of compounds. […] This alternating cycle of hyperoxia followed by hypoxia is repeated 7 times after which the animals are removed to room air (P14). Compounds are administered via intravitreal injection upon removal to room air and the animals are sacrificed 6 days later (P20). The isolated retinas are then isolated, stained mounted and analyzed as detail above in the development model. The effectiveness was also graded as is described for the development model.

Data set [9] in a line: Isomerization under assay conditions. The data set is classed as physicochemical. To be noted: Z-isomer. How it is done: Example 33(h) was prepared in the same reaction as Example 33(d). […] Found: C, (66.36), H, (4.08), N, (11.49), S, (6.55).
Setting [10] is: IP, 50 mg/kg, vehicle PEG400:H2O pH 2.3 30:70.
[11] abbreviates: IP, 25 mg/kg, vehicle PEG400:H2O pH 2.3 60:40.
The mark [12] stands for this setting: PO, 50 mg/kg, vehicle PEG400:H2O pH 2.3 60:40.

pIC50, pKi: −log10 of the molar value. Like-named read-outs stand apart in the source and are kept apart here.

These results are taken from patent US6534524B1, “Indazole compounds and pharmaceutical compositions for inhibiting protein kinases, and methods for their use” (Agouron Pharmaceuticals, Inc., priority 1999, dated 2003).

T3 sequence (P06239 223-509 P223M/C224D): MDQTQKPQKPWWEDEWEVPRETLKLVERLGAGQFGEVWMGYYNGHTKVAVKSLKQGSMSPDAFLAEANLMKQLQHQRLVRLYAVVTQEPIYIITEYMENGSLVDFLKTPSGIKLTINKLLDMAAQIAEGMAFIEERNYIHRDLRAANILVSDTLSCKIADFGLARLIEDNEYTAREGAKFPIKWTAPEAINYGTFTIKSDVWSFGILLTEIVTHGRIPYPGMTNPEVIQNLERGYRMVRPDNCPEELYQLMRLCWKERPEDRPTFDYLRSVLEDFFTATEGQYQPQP
Sequence of unphosphorylated VEGF-R2Δ50 (FLVK) (P35968 with tags, fused parts or gaps DEL940-989/E990V limits assumed): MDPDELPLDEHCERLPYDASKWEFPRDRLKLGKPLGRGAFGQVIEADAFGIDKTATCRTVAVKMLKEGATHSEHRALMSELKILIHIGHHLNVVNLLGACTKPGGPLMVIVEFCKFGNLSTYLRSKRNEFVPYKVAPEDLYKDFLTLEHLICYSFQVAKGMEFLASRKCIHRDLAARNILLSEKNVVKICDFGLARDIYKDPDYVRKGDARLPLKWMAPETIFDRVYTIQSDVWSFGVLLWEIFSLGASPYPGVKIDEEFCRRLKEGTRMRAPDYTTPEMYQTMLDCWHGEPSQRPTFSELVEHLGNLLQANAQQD
Sequence of human FGF-R1 (P11362 456-766 L457V/C488A/C584S): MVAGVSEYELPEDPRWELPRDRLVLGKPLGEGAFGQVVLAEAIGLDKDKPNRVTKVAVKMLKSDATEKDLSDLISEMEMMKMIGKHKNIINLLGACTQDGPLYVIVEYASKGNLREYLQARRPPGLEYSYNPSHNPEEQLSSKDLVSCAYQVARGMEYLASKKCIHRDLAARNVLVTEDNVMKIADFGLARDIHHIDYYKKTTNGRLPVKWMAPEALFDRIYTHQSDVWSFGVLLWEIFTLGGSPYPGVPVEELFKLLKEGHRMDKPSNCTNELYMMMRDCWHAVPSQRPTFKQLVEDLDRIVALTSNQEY
T2 sequence (P00518 2-299 limits assumed): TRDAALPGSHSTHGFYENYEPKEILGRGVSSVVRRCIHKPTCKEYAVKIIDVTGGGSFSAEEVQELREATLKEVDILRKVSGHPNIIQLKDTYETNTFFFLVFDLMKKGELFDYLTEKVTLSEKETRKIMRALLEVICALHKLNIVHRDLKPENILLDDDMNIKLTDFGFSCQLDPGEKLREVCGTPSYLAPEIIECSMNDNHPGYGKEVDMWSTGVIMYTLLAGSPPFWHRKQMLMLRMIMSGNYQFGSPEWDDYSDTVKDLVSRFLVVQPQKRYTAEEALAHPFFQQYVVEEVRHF
Sequence of phosphorylated VEGF-R2Δ50 (FLVK-P) (P35968 with tags, fused parts or gaps DEL940-989/E990V limits assumed): as the sequence (P35968 with tags, fused parts or gaps DEL940-989/E990V limits assumed) above
Sequence of CDK4/Cyclin D3 complex (P11802 whole entry, the tested form may be a part): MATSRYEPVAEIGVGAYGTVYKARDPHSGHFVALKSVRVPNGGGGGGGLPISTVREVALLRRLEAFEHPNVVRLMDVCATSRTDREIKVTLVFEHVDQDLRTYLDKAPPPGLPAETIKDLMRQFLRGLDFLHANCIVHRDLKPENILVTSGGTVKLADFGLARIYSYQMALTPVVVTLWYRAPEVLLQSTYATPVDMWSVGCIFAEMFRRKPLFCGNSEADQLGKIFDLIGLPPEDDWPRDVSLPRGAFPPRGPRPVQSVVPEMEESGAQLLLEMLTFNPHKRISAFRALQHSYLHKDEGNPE
Sequence of CDK4/Cyclin D3 complex (P30281 whole entry partner, the tested form may be a part): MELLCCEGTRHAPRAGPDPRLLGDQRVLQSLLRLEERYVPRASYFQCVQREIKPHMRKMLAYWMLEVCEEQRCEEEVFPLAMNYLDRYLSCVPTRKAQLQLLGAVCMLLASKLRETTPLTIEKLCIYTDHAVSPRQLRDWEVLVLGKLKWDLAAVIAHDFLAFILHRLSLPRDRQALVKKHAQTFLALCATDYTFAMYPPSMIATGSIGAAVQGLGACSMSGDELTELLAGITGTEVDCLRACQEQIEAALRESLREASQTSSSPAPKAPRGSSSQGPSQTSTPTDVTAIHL
Sequence of CDK1 (P06493 whole entry, species assumed, the tested form may be a part): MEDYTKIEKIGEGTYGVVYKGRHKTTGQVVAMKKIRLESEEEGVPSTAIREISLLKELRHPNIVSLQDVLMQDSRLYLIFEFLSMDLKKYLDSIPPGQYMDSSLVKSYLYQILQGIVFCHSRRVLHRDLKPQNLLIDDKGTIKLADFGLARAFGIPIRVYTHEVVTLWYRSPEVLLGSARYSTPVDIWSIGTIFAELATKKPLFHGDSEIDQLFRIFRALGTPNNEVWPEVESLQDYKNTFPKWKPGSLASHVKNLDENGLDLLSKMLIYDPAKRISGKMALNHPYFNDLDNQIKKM
Sequence of CDK1 (P14635 whole entry partner, species assumed, the tested form may be a part): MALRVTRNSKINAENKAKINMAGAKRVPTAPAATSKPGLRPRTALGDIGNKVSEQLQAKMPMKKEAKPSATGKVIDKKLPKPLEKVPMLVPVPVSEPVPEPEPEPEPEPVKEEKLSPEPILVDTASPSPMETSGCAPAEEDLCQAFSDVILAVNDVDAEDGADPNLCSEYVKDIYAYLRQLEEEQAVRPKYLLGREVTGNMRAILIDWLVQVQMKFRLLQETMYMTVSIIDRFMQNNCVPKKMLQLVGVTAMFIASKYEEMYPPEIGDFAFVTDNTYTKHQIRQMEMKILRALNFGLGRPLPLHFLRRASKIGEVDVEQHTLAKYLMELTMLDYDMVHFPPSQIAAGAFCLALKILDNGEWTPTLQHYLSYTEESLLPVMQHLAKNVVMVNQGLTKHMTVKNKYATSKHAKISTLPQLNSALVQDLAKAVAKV

One may read the pKi as the negative decadic logarithm of the Ki, by convention in mol/L. The term inhibition denotes the change of the read-out against control, counted positive when it falls. For the molecule `C(=C\c1n[nH]c2cc(-c3ccnc4[nH]ccc34)ccc12)/c1ccccc1` [Example 52(b), 6-(7-Azaindol-4-yl)-3-E-styryl-1H-indazole], the values for the negative-log Ki (pKi) at human CHK1 (FL-CHK1) (Table 3) and on CDK1 were 7.10 and 7.39, respectively. The same molecule came in with an inhibition at 10 µM in [1] of 92%. Besides, in [2] (read-out: FLVK % inhibition), the inhibition at 1 µM came out at 94%.
By pIC50 is commonly meant the IC50 on a negative log10 scale, so that one unit is a factor of ten. For the molecule `Cc1cc(C(=O)Nc2cc(Nc3ccc4c(/C=C/c5ccccn5)n[nH]c4c3)ccc2F)n(C)n1` [Example 49(a), 6-[N-(3-((1,3-Dimethyl-1H-pyrazol-5-yl)carboxamido)-4-fluoro-phenyl)amino]-3-E-[2-(pyridin-2-yl)ethenyl]-1H-indazole], the inhibition at 1 µM on LCK tyrosine kinase stood at 11%. Also, the pIC50 in [3] is ~8.40; in data set [4] it was 5.08. In data set [5] (PO, 25 mg/kg, vehicle PEG400:H2O pH 2.3 30:70), this molecule had an AUClast of 712 ng·h/mL. Further, the concentration at 7 h in data set [5] (female, PO, 25 mg/kg, vehicle PEG400:H2O pH 2.3 30:70, read-out: Cmin (7 hr conc.)) amounted to 15 ng/mL. For the same molecule, the negative logarithm of the Ki (pKi) on human FGF-R1 is 7.10.
Usually AUC stands for the area under the concentration-time curve, a measure of exposure. The low end stands for low exposure, the high end for high exposure. The term Cmax denotes the peak of the concentration-time curve. In the case of `COc1cc(-c2ccc3c(/C=C/c4ccc(OC)c(OC)c4)n[nH]c3c2)ccc1O` [Example 1(a), 3-[E-2-(3,4-Dimethoxy-phenyl)vinyl]-6-(3-methoxy-4-hydroxy-phenyl)-1H-indazole], the pKi at LCK tyrosine kinase (read-out: Lck-P Ki) was 7.06; on human CHK1 (FL-CHK1) (Table 1), 8.28; at CDK2/Cyclin A, 7.72; at human FGF-R1, 7.57; on CDK4/Cyclin D3 complex, 7.89; in data set [2] (FLVK Ki, Table 1) it was 9.52. Also, the negative logarithm of the Ki (pKi) in data set [7] is 8.70. The molecule further gave an AUC in the data set “Mouse PK assay” of 330 ng·h/mL. Further, in data set [6], the “% remain (HLM, 2 h)” value amounted to 98%. The molecule further registered an AUClast in [5] (setting [10]) of 691 ng·h/mL. The molecule also came in with a maximum concentration (Cmax) in [5] (setting [10]) of 283 ng/mL. For the same molecule, in data set [5] (setting [10]), the “plasma half-life (T1/2)” value turned out to be 2.4 h.
As to `O=C(Nc1cccc(C(=O)c2ccc3c(/C=N/n4cccc4)n[nH]c3c2)c1)c1ccccc1` [Example 45(b), 6-(3-Benzamidobenzoyl)-3-E-[N-(pyrrol-1-yl)iminomethyl]-1H-indazole], the inhibition at 1 µM on LCK tyrosine kinase is 86%; at human FGF-R1 (read-out: FGF-P % inhibition, Table 1, compound concentration 1 μM), 79%. The same molecule gave a pIC50 in data set [4] of 5.36. The AUClast is 11361 ng·h/mL in data set [5] (setting [11]) and 1636 ng·h/mL in data set [5] (setting [12]). The “plasma half-life (T1/2)” value in data set [5] (setting [11]) came to 2.0 h; in [5] (setting [12]), 3.0 h. Besides, the “Initial Evaluation” value in [8] is “++ (two pluses being judged to be approximately 25-75% regression)”. The inhibition at 0.05 µM in data set [2] (read-out: FLVK % inhibition) was 99%.
`O=C(Nc1cccc(Cl)c1)c1ccccc1Sc1ccc2c(/C=C\c3ccccn3)n[nH]c2c1` [Example 33(h), 6-[2-(3-Chlorophenylcarbamoyl)phenylsulfanyl]-3-Z-[2-(pyridin-2-yl)ethenyl]-1H-indazole]: in data set [9], the “Isomerization under assay conditions” value is on record as “found to isomerize to Example 33(d) under assay conditions”.
